Measured values published in ChEMBL document CHEMBL1143568, “A new class of selective myocardial calcium channel modulators. 2. Role of the acetal chain in oxadiazol-3-one derivatives” (J Med Chem, 2005).

What was measured:
Cavia porcellus [1] = species on record: Cavia porcellus; test: Negative inotropic potency as decrease in the developed tension in isolated guinea pig left artium
Cavia porcellus [2] = species on record: Cavia porcellus; test: Negative chronotropic activity was determined as percent decrease in the artial rate in spontaneously beating guinea pig artium at 5x10E-5 M (n=6-8)
Cavia porcellus [3] = species on record: Cavia porcellus; test: Vasorelaxant activity determined by percentage inhibition of calcium-induced contraction on K+ depolarized guinea pig aortic strip at 5x10E-5 M
Cavia porcellus [4] = species on record: Cavia porcellus; test: Negative inotropic activity as decrease in the developed tension in isolated guinea pig left artium at 5x10E-5 M (n=4-6)
Cavia porcellus [5] = species on record: Cavia porcellus; test: Negative chronotropic activity was determined as percent decrease in the artial rate in spontaneously beating guinea pig artium at5x10E-5 M (n=6-8)
Cavia porcellus [6] = species on record: Cavia porcellus; test: Negative inotropic activity as decrease in the developed tension in isolated guinea pig left artium at 10E-5 M (n=4-6)
Cavia porcellus [7] = species on record: Cavia porcellus; test: Vasorelaxant activity determined by percentage inhibition of calcium-induced contraction on K+ depolarized guinea pig aortic strip
Cavia porcellus [8] = species on record: Cavia porcellus; test: Negative inotropic activity as decrease in the developed tension in isolated guinea pig left artium 10E-6 M (n=4-6)
Cavia porcellus [9] = species on record: Cavia porcellus; test: Negative chronotropic activity was determined as percent decrease in the artial rate in spontaneously beating guinea pig artium at 10E-5 M (n=6-8)
Cavia porcellus [10] = species on record: Cavia porcellus; test: Compound was tested for percent change in coronary perfusion pressure in isolated guinea pig atrium
Cavia porcellus [11] = species on record: Cavia porcellus; test: Compound was tested for percent change in atrioventricular conduction time in isolated guinea pig atrium
Cavia porcellus [12] = species on record: Cavia porcellus; test: Negative inotropic activity as decrease in the developed tension in isolated guinea pig left artium at 10E-6 M (n=4-6)
Cavia porcellus [13] = species on record: Cavia porcellus; test: Compound was tested for percent change in heart rate in isolated guinea pig atrium
Cavia porcellus [14] = species on record: Cavia porcellus; test: Compound was tested for percent change in maximal rate of the rise in left ventricular pressure in isolated guinea pig atrium
Cavia porcellus [15] = species on record: Cavia porcellus; test: Negative inotropic activity as decrease in the developed tension in isolated guinea pig left artium at 5x10E-5 M (n=4-6); remark: listed apart in the source
Cavia porcellus [16] = species on record: Cavia porcellus; test: Negative inotropic activity as decrease in the developed tension in isolated guinea pig left artium 5x10E-5 M (n=4-6)
Cavia porcellus [17] = species on record: Cavia porcellus; test: Negative inotropic activity as decrease in the developed tension in isolated guinea pig left artium at 5x10E-6 M (n=4-6)
Cavia porcellus [18] = species on record: Cavia porcellus; test: Negative inotropic activity as decrease in the developed tension in isolated guinea pig left artium at 10E-5 M (n=4-6); remark: listed apart in the source
Cavia porcellus [19] = species on record: Cavia porcellus; test: Negative inotropic potency as maximal rate of the rise in left ventricular pressure in isolated guinea pig atrium; conditions: Cardiac atrium
Cavia porcellus [20] = species on record: Cavia porcellus; test: Negative inotropic potency as coronary perfusion pressure in isolated guinea pig atrium; conditions: Cardiac atrium
Cavia porcellus [21] = species on record: Cavia porcellus; test: Selectivity ratio against negative inotropic potency on left atrium to that of negative inotropic potency on left ventricular papillary muscle in guinea pig
Cavia porcellus [22] = species on record: Cavia porcellus; test: Negative inotropic potency is determined by decrease in the developed tension on isolated left ventricular papillary muscle (n=5-7); conditions: Muscle tissue

| Compound | EC50 (Cavia porcellus [1]) | Decrease (Cavia porcellus [2]) | Decrease (Cavia porcellus [3]) | Decrease (Cavia porcellus [4]) | further results |
| --- | --- | --- | --- | --- | --- |
| CCCCCCOC1(c2ccc(Br)cc2)SC=C(C)n2c1noc2=O (configuration not stated) | 830 nM | 9% | 2% | 81% |  |
| CC1=CS[C@@](O)(c2ccc(Cl)cc2)c2noc(=O)n21 | 800 nM | 18% | 26% |  | Decrease (Cavia porcellus [6]): 80% |
| CCCCOC1(c2ccc(Cl)cc2)SC=C(C)n2c1noc2=O (configuration not stated) | 1850 nM | 9% | 9% | 62% |  |
| CCCOC1(c2ccc(Cl)cc2)SC=C(C)n2c1noc2=O (configuration not stated) | 890 nM | 7% | 20% | 73% |  |
| CC/C=C/COC1(c2ccc(Br)cc2)SC=C(C)n2c1noc2=O (configuration not stated) |  | 10% | 11% | 43% |  |
| CCCCCCCCCCCCCCCOC1(c2ccc(Cl)cc2)SC=C(C)n2c1noc2=O (configuration not stated) | 1130 nM | 9% | 3% | 69% |  |
| CC/C=C/COC1(c2ccc(Cl)cc2)SC=C(C)n2c1noc2=O (configuration not stated) |  | 8% | 10% | 46% |  |
| COC1(c2ccc(Br)cc2)SC=C(C)n2c1noc2=O (configuration not stated) |  |  | 13% |  | Decrease (Cavia porcellus [8]): 38%; Decrease (Cavia porcellus [9]): 9% |
| CCCCCCCC/C=C\CCCCCCCCO[C@@]1(c2ccc(Cl)cc2)SC=C(C)n2c1noc2=O | 870 nM | 14% | 7% | 70% |  |
| CCCCCCCCCCCCCCCCCCO[C@@]1(c2ccc(Br)cc2)SC=C(C)n2c1noc2=O | 970 nM | 5% | 6% | 66% |  |
| CCCCCOC1(c2ccc(Cl)cc2)SC=C(C)n2c1noc2=O (configuration not stated) |  | 14% | 15% |  | Decrease (Cavia porcellus [15]): 45% |
| CCCCCCCCCCCCOC1(c2ccc(Cl)cc2)SC=C(C)n2c1noc2=O (configuration not stated) | 870 nM | 5% | 5% |  | Decrease (Cavia porcellus [16]): 56% |
| CCCCCCCCCOC1(c2ccc(Cl)cc2)SC=C(C)n2c1noc2=O (configuration not stated) | 790 nM | 11% | 4% | 73% |  |
| COC1(c2ccc(Cl)cc2)SC=C(C)n2c1noc2=O (configuration not stated) | 1540 nM | 22% | 14% | 62% |  |
| CC/C=C\COC1(c2ccc(Cl)cc2)SC=C(C)n2c1noc2=O (configuration not stated) | 1310 nM | 5% | 10% | 67% |  |
| CCCCCOC1(c2ccc(Br)cc2)SC=C(C)n2c1noc2=O (configuration not stated) |  | 2% | 3% | 34% |  |
| CCCCOC1(c2ccc(Br)cc2)SC=C(C)n2c1noc2=O (configuration not stated) | 1020 nM | 18% | 2% | 82% |  |
| CCCCCCCCCCCCCCCCCCOC1(c2ccc(Cl)cc2)SC=C(C)n2c1noc2=O (configuration not stated) |  |  | 2% | 39% | Decrease (Cavia porcellus [9]): 15% |
| CC1=CSC(OCc2ccccc2)(c2ccc(Cl)cc2)c2noc(=O)n21 (configuration not stated) | 740 nM | 5% | 4% | 63% |  |
| CCCCCCCC/C=C\CCCCCCCCO[C@@]1(c2ccc(Br)cc2)SC=C(C)n2c1noc2=O | 1260 nM | 9% | 2% | 84% |  |
| COc1ccc([C@@H]2Sc3ccccc3N(CCN(C)C)C(=O)[C@@H]2OC(C)=O)cc1 [DILTIAZEM] | 790 nM | 94% | 88% |  | EC50 (Cavia porcellus [19]): 9.33 nM; EC50 (Cavia porcellus [20]): 21.9 nM; Selectivity (Cavia porcellus [21]): 2.04; Change (Cavia porcellus [10]): -51%; Change (Cavia porcellus [11]): 34%; Change (Cavia porcellus [13]): -25%; Change (Cavia porcellus [14]): -59%; Decrease (Cavia porcellus [6]): 78%; EC50 (Cavia porcellus [22]): 1610 nM |

Continued, in another order:

| EC50 (Cavia porcellus [1]) | Compound | Decrease (Cavia porcellus [2]) | Decrease (Cavia porcellus [3]) | Decrease (Cavia porcellus [4]) | further results |
| --- | --- | --- | --- | --- | --- |
| 550 nM | C=CCOC1(c2ccc(Br)cc2)SC=C(C)n2c1noc2=O (configuration not stated) | 13% | 13% | 91% |  |
| 320 nM | CC1=CS[C@@](O)(c2ccc(Br)cc2)c2noc(=O)n21 | 18% | 12% | 97% |  |
| 410 nM | CCCOC1(c2ccc(Br)cc2)SC=C(C)n2c1noc2=O (configuration not stated) |  | 14% | 69% | Decrease (Cavia porcellus [5]): 12% |
| 420 nM | CCCCCCCCCCCCCCCO[C@@]1(c2ccc(Br)cc2)SC=C(C)n2c1noc2=O | 12% |  | 75% | Decrease (Cavia porcellus [7]): 4% |
| 590 nM | CC1=CSC(OCc2ccccc2)(c2ccc(Br)cc2)c2noc(=O)n21 (configuration not stated) | 4% | 2% | 63% |  |
| 240 nM | CC1=CS[C@@](OCC2CCCCC2)(c2ccc(Cl)cc2)c2noc(=O)n21 | 5% | 5% | 55% |  |
| 310 nM | CC1=CSC(OCC(C)C)(c2ccc(Br)cc2)c2noc(=O)n21 (configuration not stated) | 11% | 6% |  | Decrease (Cavia porcellus [6]): 79% |
| 370 nM | C=CCOC1(c2ccc(Cl)cc2)SC=C(C)n2c1noc2=O (configuration not stated) | 13% | 21% | 84% |  |
| 40 nM | CCO[C@@]1(c2ccc(Br)cc2)SC=C(C)n2c1noc2=O |  | 19% |  | Change (Cavia porcellus [10]): 32%; Change (Cavia porcellus [11]): -3%; Decrease (Cavia porcellus [12]): 77%; Change (Cavia porcellus [13]): -9%; Change (Cavia porcellus [14]): -14%; Decrease (Cavia porcellus [9]): 5% |
| 190 nM | CC1=CS[C@@](OCC2CCCCC2)(c2ccc(Br)cc2)c2noc(=O)n21 | 8% | 3% | 78% |  |
| 560 nM | CC1=CSC(OCC(C)C)(c2ccc(Cl)cc2)c2noc(=O)n21 (configuration not stated) | 15% | 37% | 83% |  |
| 130 nM | CCCCCCCCCCCCO[C@@]1(c2ccc(Br)cc2)SC=C(C)n2c1noc2=O | 16% | 3% |  | Decrease (Cavia porcellus [6]): 59% |
| 640 nM | CCCCCCOC1(c2ccc(Cl)cc2)SC=C(C)n2c1noc2=O (configuration not stated) | 10% | 3% | 68% |  |
| 350 nM | CCCCCCCCCO[C@@]1(c2ccc(Br)cc2)SC=C(C)n2c1noc2=O | 7% | 3% | 71% |  |
| 220 nM | CC1=CS[C@@](OC(C)C)(c2ccc(Cl)cc2)c2noc(=O)n21 | 10% | 10% |  | Decrease (Cavia porcellus [17]): 64% |
| 270 nM | CCO[C@@]1(c2ccc(Cl)cc2)SC=C(C)n2c1noc2=O | 16% | 28% | 53% |  |
| 630 nM | CC/C=C\COC1(c2ccc(Br)cc2)SC=C(C)n2c1noc2=O (configuration not stated) | 20% | 11% | 81% |  |
| 270 nM | CC1=CSC(OC(C)C)(c2ccc(Br)cc2)c2noc(=O)n21 (configuration not stated) | 4% | 18% |  | Decrease (Cavia porcellus [18]): 58% |
